US20110028495A1, “THE USE OF 6-HALOGENO-[1,2,4]-TRIAZOLO-[1,5-a]-PYRIMIDINE COMPOUNDS FOR COMBATING PESTS IN AND ON ANIMALS” (priority 2007, published 2011)

Assays:
[1] = test system: Mediterranean fruitfly (Ceratitis capitata); assay: Activity against Mediterranean fruitfly (eggs/hatched larvae, microtiter plate); conditions: 144 h, eggs sprayed, 6 days, compared to 0% mortality of untreated controls
Description: B.1 Activity Against Mediterranean Fruitfly (Ceratitis capitata)
The compounds were formulated in 1:3 DMSO:water. 50 to 80 eggs were placed into microtiterplates filled with 0.5% agar-agar and 14% diet in water. The eggs were sprayed with 5 μl of the test solution, the plates were sealed with pierced foils and kept at 27-29° C. and 75-85% humidity under fluorescent light for 6 days. Mortality was assessed on the basis of the agility of the hatched larvae. Tests were replicated 2 times.

[2] = test system: Cat flea (Ctenocephalides felis); assay: Ingestion assay with Ctenocephalides felis (treated cow blood); conditions: po, adult C. felis fed treated cow blood, 72 hours post treatment, read-out: EC50 (mortality of C. felis)
Description: B.5 Activity Against Cat Flea (Ctenocephalides felis)
B.5.1 Ingestion Assay with Ctenocephalides felis
The compounds were formulated in 100% DMSO and were diluted with fresh cow blood to final testing concentrations of 50 ppm, 12.5 ppm, 3.125 ppm, 0.78 ppm and 0.195 ppm. Ten adult C. felis were loaded into testing cages and exposed to blood containing the test compound for up to 72 hours. Blood was changed at 24 hour intervals until the test was completed and kept at 37° C. for duration of the test. The efficacy of a compound was determined based on mortality of C. felis at 72 hours post treatment.

Caenorhabditis elegans = assay: Activity against Caenorhabditis elegans (L1 larval motility); conditions: L1 C. elegans, dose response assay, read-out: EC50 (reduction in motility of L1 larvae)
Description: B.2 Activity Against Caenorhabditis elegans
(§1) The compounds were formulated in 100% DMSO and were tested in microtiter plates containing 50 μl nematode growth media, 1% E. coli and 20 L1 C. elegans. The efficacy of a compound was determined based on the motility of the larvae as compared to average motility of control wells containing DMSO only. Compounds with >80% reduction in motility were tested in a dose response assay to determine EC50 values.

cat fleas = assay: Efficacy against fleas in dogs (spot-on); type: in vivo, cat fleas on dogs; conditions: 20 mg/kg, days 9, 16 and 23, compared to the placebo group
Source text: (§2) B.7 Study to Evaluate Efficacy of Compounds Against Fleas and Ticks in Dogs
(§3) Dogs were infested with 100 cat fleas on days −1, 8, 15, 22, 29, and 36, and 50 brown dog ticks on days −1, 7 14, 21, 28, and 35. Infested dogs receive a treatment of a compound or placebo in the form of spot-on applied at the middle of the neck between the shoulder blades. Live fleas and ticks were removed and counted on days 2, 9, 16, 23, 30, and 37.

brown dog ticks = assay: Efficacy against ticks in dogs (spot-on); type: in vivo, brown dog ticks on dogs; conditions: 20 mg/kg, days 9, 16 and 23, compared to the placebo group
Source text: as §2, §3

[3] = test system: Yellowfever mosquito (Aedes aegypti); assay: Activity against yellowfever mosquito (neonate larval motility); conditions: neonate A. aegypti larvae, dose response assay
Description: B.4. Activity Against Yellowfever Mosquito (Aedes aegypti)
as §1, with “180 ul X Luria Broth media” for “50 μl nematode growth media, 1% E. coli”, “10 neonate A. aegypti larvae.” for “20 L1 C. elegans.”

Cc1nc2ncnn2c(NC(C)c2ccc(OC(F)(F)CF)cc2)c1Cl (racemic) [C.I.38]
mortality at 2500 ppm [1]: > 75%
LC50 [2]: < 50 mg/L

CCc1nc2ncnn2c(NC(C)c2ccc(OC(F)(F)CF)cc2)c1Cl (racemic) [C.I.49]
mortality at 2500 ppm [1]: > 75%

CCc1nc2ncnn2c(NC(C)c2ccc(-c3ccccc3)cc2)c1Cl (racemic) [C.I.59]
EC50 (Caenorhabditis elegans): < 10 mg/L

Cc1nc2ncnn2c(NC2CCC(C)CC2)c1Cl (stereo not shown) [C.I.1]
EC50 (Caenorhabditis elegans): < 10 mg/L

Cc1nc2ncnn2c(NC2CCC(C(C)C)CC2)c1Cl (stereo not shown) [C.I.2]
EC50 (Caenorhabditis elegans): < 10 mg/L

CCC(C)[C@H]1CC[C@@H](Nc2c(Cl)c(C)nc3ncnn23)CC1 (stereo partly shown) [C.I.5]
LC50 [2]: < 50 mg/L

Cc1nc2ncnn2c(NCc2ccc(Oc3ccc(Cl)cc3)cc2)c1Cl [C.I.10]
EC50 (Caenorhabditis elegans): < 10 mg/L
LC50 [2]: < 50 mg/L

Cc1nc2ncnn2c(NCc2ccc(Oc3ccc(Br)cc3)cc2)c1Cl [C.I.11]
EC50 (Caenorhabditis elegans): < 10 mg/L
LC50 [2]: < 50 mg/L

Cc1nc2ncnn2c(NCc2ccc(Oc3ccc(Cl)c(Cl)c3)cc2)c1Cl [C.I.12]
EC50 (Caenorhabditis elegans): < 10 mg/L

CCc1nc2ncnn2c(NC2CCC(C(C)C)CC2)c1Cl (stereo not shown) [C.I.17]
LC50 [2]: < 50 mg/L

CCc1nc2ncnn2c(NC2CCC(C(C)CC)CC2)c1Cl (stereo not shown) [C.I.18]
LC50 [2]: < 50 mg/L

CCc1nc2ncnn2c(N[C@H]2CC[C@@H](C(C)(C)C)CC2)c1Cl [C.I.20]
LC50 [2]: < 50 mg/L
efficacy against fleas (cat fleas): > 80%
efficacy against ticks (brown dog ticks): > 80%

CCc1nc2ncnn2c(N[C@@H](C)c2ccc(Cl)cc2)c1Cl [C.I.22]
mortality at 2500 ppm [1]: > 75%

CCc1nc2ncnn2c(N[C@@H](C)c2ccc(Br)cc2)c1Cl [C.I.23]
EC50 (Caenorhabditis elegans): < 10 mg/L

CCc1nc2ncnn2c(N[C@@H](C)c2ccc(OC(F)F)cc2)c1Cl [C.I.31]
EC50 (reduction in motility of larvae) [3]: < 1 ppm
LC50 [2]: < 50 mg/L

CCc1nc2ncnn2c(NCCc2ccc(OC(F)(F)F)cc2)c1Cl [C.I.32]
EC50 (Caenorhabditis elegans): < 10 mg/L

Cc1nc2ncnn2c(N[C@H]2CC[C@@H](C(F)(C(F)(F)F)C(F)(F)F)CC2)c1Cl [C.I.34]
EC50 (Caenorhabditis elegans): < 10 mg/L
LC50 [2]: < 50 mg/L

Cc1nc2ncnn2c(N[C@@H](C)c2ccc3ccccc3c2)c1Cl [C.I.37]
LC50 [2]: < 50 mg/L

Cc1nc2ncnn2c(N[C@@H](C)c2ccc(OC(F)(F)C(F)F)cc2)c1Cl [C.I.40]
EC50 (Caenorhabditis elegans): < 10 mg/L

CCC(Nc1c(Cl)c(C)nc2ncnn12)c1ccc(OC(F)(F)C(F)C(F)(F)F)cc1 (stereo not shown) [C.I.43]
mortality at 2500 ppm [1]: > 75%
EC50 (Caenorhabditis elegans): < 10 mg/L

CCc1nc2ncnn2c(N[C@H]2CC[C@@H](CCC(F)(F)F)CC2)c1Cl [C.I.45]
EC50 (Caenorhabditis elegans): < 10 mg/L

CCc1nc2ncnn2c(N[C@H]2CC[C@@H](C(F)(C(F)(F)F)C(F)(F)F)CC2)c1Cl [C.I.46]
EC50 (Caenorhabditis elegans): < 10 mg/L

CCc1nc2ncnn2c(NC(CC)c2ccc(OC(F)(F)C(F)C(F)(F)F)cc2)c1Cl (stereo not shown) [C.I.53]
mortality at 2500 ppm [1]: > 75%

CCc1nc2nc(C)nn2c(N[C@H]2CC[C@@H](C(C)(C)C)CC2)c1Cl [C.I.55]
mortality at 2500 ppm [1]: > 75%

CCc1nc2nc([S+](C)[O-])nn2c(N[C@@H](C)c2ccc(C)cc2)c1Cl (stereo partly shown) [C.I.56]
EC50 (Caenorhabditis elegans): < 10 mg/L

CCc1nc2ncnn2c(N[C@@H](C)c2cccc(OCc3ccccc3)c2)c1Cl [C.I.58]
EC50 (Caenorhabditis elegans): < 10 mg/L
